Experimental data from patent US8280710B2, “Method for determining thermal stability of collagen or collagen-like peptide” (University of Medicine and Dentistry of New Jersey, priority 2005, dated 2012).
Non-standard residues stand in square brackets, D forms with d. Residues, ends and D or L forms follow the SMILES beside them. Hyp = O=C(O)[C@@H]1C[C@@H](O)CN1

How the values were obtained:
[1] = peptide of Table 3, defined standard conditions
Experimental: The propensity measurements for all 20 amino acid residues in the Xaa1 position in a Gly-Xaa1-Hyp context and all 20 amino acid residues in the Xaa2 position in a Gly-Pro-Xaa2 context were determined by measuring thermal stability of host-guest peptides (Persikov, et al. (2000) supra).
The Tm values of all host-guest peptides were measured under a set of standard conditions, with c=1 mg/ml in phosphate-buffered saline, pH 7.0, and with a heating rate average of 0.1° C./minute (Persikov, et al. (2004) supra).

[2] = Method for predicting global Tm of collagen peptides from amino acid sequence; details: observed minus predicted, peptides of Table 3
Experimental: The global thermal stability of homotrimeric triple helical peptides with length of at least 6 tripeptide units and, in most cases, containing 10 tripeptide units was determined as follows.
For the total number of triplets n in a given peptide, the base Tm^0(n) for (Pro-Hyp-Gly) or (Pro-Pro-Gly)n was calculated from the length dependence (Equation 1), including any effect of blocking groups;
The melting temperature value was decreased for every triplet in the sequence that was not Gly-Pro-Hyp, subtracting a value of ΔTm^GXY (Table 1). The N-terminal and C-terminal tripeptide units were excluded from the calculation due to the staggering of the chains and the disorder for the peptide ends (Bella et al. (1994) supra; Li, et al. (1993) Biochemistry 32:7377-7387; Kramer, et al. (2001) J. Mol. Biol. 301:1191-1205).
The resulting value for the peptide melting temperature was adjusted using the ΔTm^int values for interactions between neighboring tripeptides (Table 2).
The method was formulated as follows.
To extrapolate the dependence of the Tm of the host peptides on peptide length, the experimental values for (Pro-Hyp-Gly)n and (Pro-Pro-Gly)n versus n, where n is the number of tripeptide units, were fit to the exponential decay function
[formula] where Tm^0(n) is defined as the base thermal stability of the repeating polytripeptide standard, Tm^max is the maximum melting temperature, and the constant n0 represents the length of the repeating peptide with Tm=0.

Compound	Tm^obs [1] [°C]	ΔTm [2] [°C]
CC(=O)NCC(=O)N1CCC[C@H]1C(=O)N1C[C@H](O)C[C@H]1C(=O)NCC(=O)N1CCC[C@H]1C(=O)N1C[C@H](O)C[C@H]1C(=O)NCC(=O)N1CCC[C@H]1C(=O)N1C[C@H](O)C[C@H]1C(=O)NCC(=O)N[C@@H](C)C(=O)N[C@@H](CCCCN)C(=O)NCC(=O)N[C@@H](CC(=O)O)C(=O)N[C@@H](C)C(=O)NCC(=O)N1CCC[C@H]1C(=O)N1C[C@H](O)C[C@H]1C(=O)NCC(=O)N1CCC[C@H]1C(=O)N[C@@H](C)C(=O)NCC(=O)N1CCC[C@H]1C(=O)N1C[C@H](O)C[C@H]1C(=O)NCC(=O)N1CCC[C@H]1C(=O)N1C[C@H](O)C[C@H]1C(=O)NCC(=O)N1CCC[C@H]1C(=O)N1C[C@H](O)C[C@H]1C(=O)NCC(=O)N[C@@H](Cc1ccc(O)cc1)C(N)=O [T1-655, Ac-(GPO)3-GAK-GDA-GPO-GPA-(GPO)3-GY-NH2] (Ac-GP[Hyp]GP[Hyp]GP[Hyp]GAKGDAGP[Hyp]GPAGP[Hyp]GP[Hyp]GP[Hyp]GY-NH2)	42.8	0.1
CC(=O)NCC(=O)N1CCC[C@H]1C(=O)N1C[C@H](O)C[C@H]1C(=O)NCC(=O)N1CCC[C@H]1C(=O)N1C[C@H](O)C[C@H]1C(=O)NCC(=O)N[C@@H](CCCNC(=N)N)C(=O)N1C[C@H](O)C[C@H]1C(=O)NCC(=O)N[C@@H](CCCNC(=N)N)C(=O)N[C@@H](CCCCN)C(=O)NCC(=O)N[C@@H](CCCNC(=N)N)C(=O)N1C[C@H](O)C[C@H]1C(=O)NCC(=O)N1CCC[C@H]1C(=O)N1C[C@H](O)C[C@H]1C(=O)NCC(=O)N1CCC[C@H]1C(=O)N1C[C@H](O)C[C@H]1C(=O)NCC(=O)N1CCC[C@H]1C(=O)N1C[C@H](O)C[C@H]1C(=O)NCC(=O)N1CCC[C@H]1C(=O)N1C[C@H](O)C[C@H]1C(=O)NCC(=O)N1CCC[C@H]1C(=O)N1C[C@H](O)C[C@H]1C(=O)NCC(N)=O [AchE-P126 (r), Ac-GPO-GPO-GRO-GRK-GRO-(GPO)5-G-NH2] (Ac-GP[Hyp]GP[Hyp]GR[Hyp]GRKGR[Hyp]GP[Hyp]GP[Hyp]GP[Hyp]GP[Hyp]GP[Hyp]G-NH2)	30.0	−2.6
CC(=O)NCC(=O)N1CCC[C@H]1C(=O)N1C[C@H](O)C[C@H]1C(=O)NCC(=O)N1CCC[C@H]1C(=O)N1C[C@H](O)C[C@H]1C(=O)NCC(=O)N1CCC[C@H]1C(=O)N1C[C@H](O)C[C@H]1C(=O)NCC(=O)N[C@@H](CCCCN)C(=O)N[C@@H](CCCNC(=N)N)C(=O)NCC(=O)N[C@@H](CCCCN)C(=O)N1C[C@H](O)C[C@H]1C(=O)NCC(=O)N1CCC[C@H]1C(=O)N1C[C@H](O)C[C@H]1C(=O)NCC(=O)N1CCC[C@H]1C(=O)N1C[C@H](O)C[C@H]1C(=O)NCC(=O)N1CCC[C@H]1C(=O)N1C[C@H](O)C[C@H]1C(=O)NCC(=O)NCC(N)=O [AchE-HG-C1, Ac-GPO-GPO-GPO-GKR-GKO-GPO-GPO-GPO-GG-NH2] (Ac-GP[Hyp]GP[Hyp]GP[Hyp]GKRGK[Hyp]GP[Hyp]GP[Hyp]GP[Hyp]GG-NH2)	32.3	−1.0
CC[C@H](C)[C@H](NC(=O)CNC(C)=O)C(=O)N[C@@H](CC(N)=O)C(=O)NCC(=O)N[C@@H](Cc1ccccc1)C(=O)N1C[C@H](O)C[C@H]1C(=O)NCC(=O)N[C@@H](CCCCN)C(=O)N[C@@H](CC(=O)O)C(=O)NCC(=O)N[C@@H](CCCNC(=N)N)C(=O)N[C@@H](CC(=O)O)C(=O)NCC(=O)N[C@H](C(=O)N[C@@H](CCCCN)C(=O)NCC(=O)N[C@@H](CCC(=O)O)C(=O)N[C@@H](CCCCN)C(=O)NCC(=O)N[C@@H](CCC(=O)O)C(=O)N1C[C@H](O)C[C@H]1C(=O)NCC(=O)N1CCC[C@H]1C(=O)N1C[C@H](O)C[C@H]1C(=O)NCC(=O)N1CCC[C@H]1C(=O)N1C[C@H](O)C[C@H]1C(=O)NCC(=O)N1CCC[C@H]1C(=O)N1C[C@H](O)C[C@H]1C(=O)NCC(=O)N1CCC[C@H]1C(=O)N1C[C@H](O)C[C@H]1C(=O)NCC(=O)NCC(N)=O)[C@@H](C)O [MBL 42-61, Ac-GIN-GFO-GKD-GRD-GTK-GEK-GEO-(GPO)4-GG-NH2] (Ac-GINGF[Hyp]GKDGRDGTKGEKGE[Hyp]GP[Hyp]GP[Hyp]GP[Hyp]GP[Hyp]GG-NH2)	23.0	−2.2
CC(=O)NCC(=O)N1CCC[C@H]1C(=O)N1C[C@H](O)C[C@H]1C(=O)NCC(=O)N1CCC[C@H]1C(=O)N1C[C@H](O)C[C@H]1C(=O)NCC(=O)N[C@@H](CCCNC(=N)N)C(=O)N1C[C@H](O)C[C@H]1C(=O)NCC(=O)N[C@@H](CCCNC(=N)N)C(=O)N[C@@H](CCCCN)C(=O)NCC(=O)N[C@@H](CCCNC(=N)N)C(=O)N1C[C@H](O)C[C@H]1C(=O)NCC(=O)N1CCC[C@H]1C(=O)N1C[C@H](O)C[C@H]1C(=O)NCC(=O)N1CCC[C@H]1C(=O)N1C[C@H](O)C[C@H]1C(=O)NCC(=O)N1CCC[C@H]1C(=O)N1C[C@H](O)C[C@H]1C(=O)NCC(=O)NCC(N)=O [AchE-HG-N2, Ac-GPO-GPO-GRO-GRK-GRO-GPO-GPO-GPO-GG-NH2] (Ac-GP[Hyp]GP[Hyp]GR[Hyp]GRKGR[Hyp]GP[Hyp]GP[Hyp]GP[Hyp]GG-NH2)	17.4	1.3
CC(=O)NCC(=O)N1CCC[C@H]1C(=O)N1C[C@H](O)C[C@H]1C(=O)NCC(=O)N1CCC[C@H]1C(=O)N1C[C@H](O)C[C@H]1C(=O)NCC(=O)N[C@@H](CCCNC(=N)N)C(=O)N1C[C@H](O)C[C@H]1C(=O)NCC(=O)N[C@@H](CCCCN)C(=O)N[C@@H](CCCNC(=N)N)C(=O)NCC(=O)N[C@@H](CCCCN)C(=O)N[C@@H](CCC(N)=O)C(=O)NCC(=O)N[C@@H](CCC(N)=O)C(=O)N[C@@H](CCCCN)C(=O)NCC(=O)N1CCC[C@H]1C(=O)N1C[C@H](O)C[C@H]1C(=O)NCC(=O)N1CCC[C@H]1C(=O)N1C[C@H](O)C[C@H]1C(=O)NCC(=O)NCC(N)=O [AchE-HG-C4, Ac-GPO-GPO-GRO-GKR-GKQ-GQK-GPO-GPO-GG-NH2] (Ac-GP[Hyp]GP[Hyp]GR[Hyp]GKRGKQGQKGP[Hyp]GP[Hyp]GG-NH2)	8.1	−1.2
GPS-GPR-GLO-GPO-GAO-GPQ-GFQ-GPO-(GEO)2-GAS-GPM [α1CB2]	12	3.4
CC[C@H](C)[C@H](NC(=O)CNC(=O)[C@@H]1C[C@@H](O)CN1C(=O)[C@@H]1CCCN1C(=O)CNC(C)=O)C(=O)N[C@@H](CCCNC(=N)N)C(=O)NCC(=O)N1CCC[C@H]1C(=O)N[C@@H](CCCCN)C(=O)NCC(=O)N[C@@H](CCC(N)=O)C(=O)N[C@@H](CCCCN)C(=O)NCC(=O)N[C@@H](CCC(=O)O)C(=O)N1C[C@H](O)C[C@H]1C(=O)NCC(=O)N[C@@H](CC(C)C)C(=O)N1C[C@H](O)C[C@H]1C(=O)NCC(=O)N1CCC[C@H]1C(=O)N1C[C@H](O)C[C@H]1C(=O)NCC(=O)N1CCC[C@H]1C(=O)N1C[C@H](O)C[C@H]1C(=O)NCC(=O)N1CCC[C@H]1C(=O)N1C[C@H](O)C[C@H]1C(=O)NCC(=O)N1CCC[C@H]1C(=O)N1C[C@H](O)C[C@H]1C(=O)NCC(=O)N[C@@H](Cc1ccc(O)cc1)C(N)=O [C1qC-67, Ac-GPO-GIR-GPK-GQK-GEO-GLO-(GPO)4-GY-NH2] (Ac-GP[Hyp]GIRGPKGQKGE[Hyp]GL[Hyp]GP[Hyp]GP[Hyp]GP[Hyp]GP[Hyp]GY-NH2)	28.4	−1.4
CC(=O)NCC(=O)N1CCC[C@H]1C(=O)N1C[C@H](O)C[C@H]1C(=O)NCC(=O)N1CCC[C@H]1C(=O)N1C[C@H](O)C[C@H]1C(=O)NCC(=O)N[C@@H](CCCNC(=N)N)C(=O)N1C[C@H](O)C[C@H]1C(=O)NCC(=O)N[C@@H](CCCCN)C(=O)N[C@@H](CCCNC(=N)N)C(=O)NCC(=O)N[C@@H](CCCCN)C(=O)N1C[C@H](O)C[C@H]1C(=O)NCC(=O)N1CCC[C@H]1C(=O)N1C[C@H](O)C[C@H]1C(=O)NCC(=O)N1CCC[C@H]1C(=O)N1C[C@H](O)C[C@H]1C(=O)NCC(=O)N1CCC[C@H]1C(=O)N1C[C@H](O)C[C@H]1C(=O)NCC(=O)NCC(N)=O [AchE-HG-C2, Ac-GPO-GPO-GRO-GKR-GKO-GPO-GPO-GPO-GG-NH2] (Ac-GP[Hyp]GP[Hyp]GR[Hyp]GKRGK[Hyp]GP[Hyp]GP[Hyp]GP[Hyp]GG-NH2)	26.9	0.3
CC(=O)NCC(=O)N1CCC[C@H]1C(=O)N[C@@H](C)C(=O)NCC(=O)N1CCC[C@H]1C(=O)N[C@@H](C)C(=O)NCC(=O)N1CCC[C@H]1C(=O)N[C@H](C(=O)NCC(=O)N1CCC[C@H]1C(=O)N[C@@H](C)C(=O)NCC(=O)N[C@@H](C)C(=O)N[C@@H](CCCNC(=N)N)C(=O)NCC(=O)N1CCC[C@H]1C(=O)N[C@@H](C)C(=O)NCC(=O)N1CCC[C@H]1C(=O)N1C[C@H](O)C[C@H]1C(=O)NCC(=O)N1CCC[C@H]1C(=O)N1C[C@H](O)C[C@H]1C(=O)NCC(=O)N[C@@H](C)C(=O)N1C[C@H](O)C[C@H]1C(=O)NCC(=O)N1CCC[C@H]1C(=O)N1C[C@H](O)C[C@H]1C(=O)NCC(=O)N[C@H](C(N)=O)C(C)C)C(C)C [T1-892 (P26A), Ac-(GPA)2-GPV-GPA-GAR-GPA-(GPO)2-GAO-GPO-GV-NH2] (Ac-GPAGPAGPVGPAGARGPAGP[Hyp]GP[Hyp]GA[Hyp]GP[Hyp]GV-NH2)	24.1	1.5
